What was measured:
[1] = molecular target: Tyrosine-protein kinase Blk (Homo sapiens) (UniProt P51451); conditions: Compound concentration 1000.0 nM
[2] = molecular target: Muscle, skeletal receptor tyrosine-protein kinase (Homo sapiens) (UniProt O15146); conditions: Compound concentration 1000.0 nM
[3] = molecular target: Serine/threonine-protein kinase pim-1 (Homo sapiens) (UniProt P11309); conditions: Compound concentration 1000.0 nM
[4] = molecular target: Vasoactive intestinal polypeptide receptor 1 (Homo sapiens) (UniProt P32241); test: VPAC1 (VIP1) (h) Eurofins-Cerep binding assay; design: ligand concentration 0.04 nM; conditions: filed as agonist, Compound concentration 10.0 uM
Vasoactive intestinal polypeptide receptor 1 (Homo sapiens), sequence (P32241 whole entry): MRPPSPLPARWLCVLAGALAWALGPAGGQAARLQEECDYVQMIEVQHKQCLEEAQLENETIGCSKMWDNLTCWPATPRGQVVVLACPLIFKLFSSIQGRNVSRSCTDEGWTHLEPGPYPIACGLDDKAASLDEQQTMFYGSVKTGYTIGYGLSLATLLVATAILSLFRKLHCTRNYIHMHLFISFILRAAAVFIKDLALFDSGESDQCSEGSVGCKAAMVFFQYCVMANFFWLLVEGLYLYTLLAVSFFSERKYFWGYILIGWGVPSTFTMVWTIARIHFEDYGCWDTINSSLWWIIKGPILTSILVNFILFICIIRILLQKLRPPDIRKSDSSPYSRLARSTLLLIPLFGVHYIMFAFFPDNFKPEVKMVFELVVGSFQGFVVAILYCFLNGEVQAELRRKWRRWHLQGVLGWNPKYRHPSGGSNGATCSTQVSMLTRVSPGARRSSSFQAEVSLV

[5] = molecular target: Serine/threonine-protein kinase 4 (Homo sapiens) (UniProt Q13043); conditions: Compound concentration 1000.0 nM
[6] = molecular target: Serine/threonine-protein kinase VRK2 (Homo sapiens) (UniProt Q86Y07); conditions: Compound concentration 1000.0 nM
[7] = molecular target: Protein-tyrosine kinase 2-beta (Homo sapiens) (UniProt Q14289); conditions: Compound concentration 1000.0 nM
[8] = molecular target: Serine/threonine-protein kinase/endoribonuclease IRE1 (Homo sapiens) (UniProt O75460); conditions: Compound concentration 1000.0 nM
[9] = molecular target: Myosin-IIIb (Homo sapiens) (UniProt Q8WXR4); conditions: Compound concentration 1000.0 nM
[10] = molecular target: cAMP-dependent protein kinase catalytic subunit PRKX (Homo sapiens) (UniProt P51817); conditions: Compound concentration 1000.0 nM
[11] = molecular target: B2 bradykinin receptor (Homo sapiens) (UniProt P30411); test: B2 (h) Eurofins-Cerep binding assay; design: ligand concentration 0.3 nM; conditions: filed as agonist, Compound concentration 10.0 uM
[12] = molecular target: RAC-alpha serine/threonine-protein kinase (Homo sapiens) (UniProt P31749); conditions: Compound concentration 1000.0 nM
[13] = molecular target: Tyrosine-protein kinase receptor Tie-1 (Homo sapiens) (UniProt P35590); conditions: Compound concentration 1000.0 nM
[14] = molecular target: Death-associated protein kinase 2 (Homo sapiens) (UniProt Q9UIK4); conditions: Compound concentration 1000.0 nM
Death-associated protein kinase 2 (Homo sapiens), sequence (Q9UIK4 whole entry, looked up): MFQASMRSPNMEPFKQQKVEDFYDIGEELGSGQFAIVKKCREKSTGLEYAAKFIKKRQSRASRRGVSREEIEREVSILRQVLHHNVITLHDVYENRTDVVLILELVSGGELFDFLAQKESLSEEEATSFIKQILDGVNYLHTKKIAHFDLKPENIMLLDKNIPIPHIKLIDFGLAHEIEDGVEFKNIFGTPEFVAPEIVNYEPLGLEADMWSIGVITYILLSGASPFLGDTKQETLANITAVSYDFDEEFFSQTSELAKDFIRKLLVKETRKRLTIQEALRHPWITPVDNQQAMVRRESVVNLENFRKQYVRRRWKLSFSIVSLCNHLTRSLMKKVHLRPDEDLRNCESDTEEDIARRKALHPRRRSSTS

[15] = molecular target: cGMP-dependent protein kinase 1 (Homo sapiens) (UniProt Q13976); conditions: Compound concentration 1000.0 nM
[16] = molecular target: Endothelin receptor type B (Homo sapiens) (UniProt P24530); test: ETB (h) Eurofins-Cerep binding assay; design: ligand concentration 0.03 nM; conditions: filed as agonist, Compound concentration 10.0 uM
[17] = system: Fibroblast growth factor receptor 3 (Homo sapiens), P22607 [G697C]; conditions: Compound concentration 1000.0 nM
Fibroblast growth factor receptor 3 (Homo sapiens), P22607 [G697C], sequence (P22607 whole entry G697C): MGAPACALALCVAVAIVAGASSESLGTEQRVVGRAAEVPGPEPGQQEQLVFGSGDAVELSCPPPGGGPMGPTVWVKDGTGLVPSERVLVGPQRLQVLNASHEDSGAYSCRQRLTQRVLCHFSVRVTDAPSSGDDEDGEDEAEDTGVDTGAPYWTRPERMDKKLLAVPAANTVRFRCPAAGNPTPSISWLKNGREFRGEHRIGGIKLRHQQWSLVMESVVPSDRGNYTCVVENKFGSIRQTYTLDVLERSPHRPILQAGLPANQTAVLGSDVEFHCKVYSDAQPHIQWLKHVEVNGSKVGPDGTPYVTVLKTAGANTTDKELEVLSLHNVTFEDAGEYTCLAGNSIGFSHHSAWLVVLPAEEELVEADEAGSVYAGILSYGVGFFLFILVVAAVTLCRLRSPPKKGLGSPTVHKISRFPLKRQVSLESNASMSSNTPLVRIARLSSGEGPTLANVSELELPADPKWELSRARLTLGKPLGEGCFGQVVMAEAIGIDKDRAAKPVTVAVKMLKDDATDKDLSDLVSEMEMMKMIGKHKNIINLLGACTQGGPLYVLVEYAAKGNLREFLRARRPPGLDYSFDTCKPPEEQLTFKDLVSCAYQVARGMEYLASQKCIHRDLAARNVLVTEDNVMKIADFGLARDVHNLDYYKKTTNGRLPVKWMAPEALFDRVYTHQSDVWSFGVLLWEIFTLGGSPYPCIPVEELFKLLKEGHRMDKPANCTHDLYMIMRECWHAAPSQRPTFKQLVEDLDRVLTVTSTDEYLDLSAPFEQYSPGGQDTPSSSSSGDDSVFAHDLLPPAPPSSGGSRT

[18] = molecular target: Receptor-type tyrosine-protein kinase FLT3 (Homo sapiens) (UniProt P36888); conditions: Compound concentration 1000.0 nM
[19] = molecular target: Serine/threonine-protein kinase ULK1 (Homo sapiens) (UniProt O75385); conditions: Compound concentration 1000.0 nM
[20] = molecular target: Type-1 angiotensin II receptor (Homo sapiens) (UniProt P30556); test: AT1 (h) Eurofins-Cerep binding assay; design: ligand concentration 0.05 nM; conditions: filed as antagonist, Compound concentration 10.0 uM
[21] = molecular target: Urotensin-2 receptor (Homo sapiens) (UniProt Q9UKP6); test: UT (h) Eurofins-Cerep binding assay; design: ligand concentration 0.1 nM; conditions: filed as agonist, Compound concentration 10.0 uM
Urotensin-2 receptor (Homo sapiens), sequence (Q9UKP6 whole entry): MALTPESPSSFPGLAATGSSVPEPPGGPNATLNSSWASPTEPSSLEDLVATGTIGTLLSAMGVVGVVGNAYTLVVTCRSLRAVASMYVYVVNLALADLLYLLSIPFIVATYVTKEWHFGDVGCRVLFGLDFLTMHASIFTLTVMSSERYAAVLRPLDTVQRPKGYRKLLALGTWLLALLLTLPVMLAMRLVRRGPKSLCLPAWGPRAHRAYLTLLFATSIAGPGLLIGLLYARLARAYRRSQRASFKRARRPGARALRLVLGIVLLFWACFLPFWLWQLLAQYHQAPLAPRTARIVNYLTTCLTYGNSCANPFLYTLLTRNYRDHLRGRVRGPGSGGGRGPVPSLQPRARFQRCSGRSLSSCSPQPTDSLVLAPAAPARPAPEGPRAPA

[22] = molecular target: Serine/threonine-protein kinase Nek3 (Homo sapiens) (UniProt P51956); conditions: Compound concentration 1000.0 nM
[23] = molecular target: Homeodomain-interacting protein kinase 1 (Homo sapiens) (UniProt Q86Z02); conditions: Compound concentration 1000.0 nM
Homeodomain-interacting protein kinase 1 (Homo sapiens), sequence (Q86Z02 whole entry, looked up): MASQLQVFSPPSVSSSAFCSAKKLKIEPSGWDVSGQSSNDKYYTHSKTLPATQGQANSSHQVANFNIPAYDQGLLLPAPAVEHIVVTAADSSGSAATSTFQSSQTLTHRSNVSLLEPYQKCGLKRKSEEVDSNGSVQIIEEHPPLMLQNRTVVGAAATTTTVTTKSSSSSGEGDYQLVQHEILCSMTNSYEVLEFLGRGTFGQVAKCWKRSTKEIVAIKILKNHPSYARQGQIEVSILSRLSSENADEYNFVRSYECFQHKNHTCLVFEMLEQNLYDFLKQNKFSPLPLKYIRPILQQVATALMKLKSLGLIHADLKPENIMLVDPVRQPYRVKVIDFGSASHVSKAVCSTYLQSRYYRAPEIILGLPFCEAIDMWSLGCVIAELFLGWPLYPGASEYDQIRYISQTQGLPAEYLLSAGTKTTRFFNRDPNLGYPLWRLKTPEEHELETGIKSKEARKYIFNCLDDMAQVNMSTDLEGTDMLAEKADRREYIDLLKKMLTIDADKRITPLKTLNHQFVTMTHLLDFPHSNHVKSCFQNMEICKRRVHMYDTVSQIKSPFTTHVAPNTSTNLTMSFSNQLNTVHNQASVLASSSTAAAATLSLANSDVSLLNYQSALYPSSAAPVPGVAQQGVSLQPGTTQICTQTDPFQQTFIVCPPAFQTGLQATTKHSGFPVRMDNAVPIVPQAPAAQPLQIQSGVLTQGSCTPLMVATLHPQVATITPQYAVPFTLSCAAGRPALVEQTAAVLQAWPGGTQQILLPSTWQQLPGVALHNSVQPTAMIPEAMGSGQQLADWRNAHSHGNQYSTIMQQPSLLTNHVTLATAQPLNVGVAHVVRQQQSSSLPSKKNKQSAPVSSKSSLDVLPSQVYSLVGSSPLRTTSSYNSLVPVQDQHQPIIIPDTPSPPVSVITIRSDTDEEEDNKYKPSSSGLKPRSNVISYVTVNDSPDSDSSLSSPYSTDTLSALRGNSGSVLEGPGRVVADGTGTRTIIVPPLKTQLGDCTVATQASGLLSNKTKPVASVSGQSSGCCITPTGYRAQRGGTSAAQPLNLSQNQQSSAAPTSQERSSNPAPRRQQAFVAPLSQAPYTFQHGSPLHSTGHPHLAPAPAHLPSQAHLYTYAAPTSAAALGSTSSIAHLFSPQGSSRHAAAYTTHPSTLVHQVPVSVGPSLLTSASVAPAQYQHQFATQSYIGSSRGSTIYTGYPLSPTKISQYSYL

[24] = molecular target: T1, Alpha-2B adrenergic receptor (Homo sapiens) (UniProt P18089); test: Alpha2B (h) Eurofins-Cerep binding assay; design: ligand concentration 2.5 nM; conditions: filed as antagonist, Compound concentration 10.0 uM
T1 sequence (whole entry): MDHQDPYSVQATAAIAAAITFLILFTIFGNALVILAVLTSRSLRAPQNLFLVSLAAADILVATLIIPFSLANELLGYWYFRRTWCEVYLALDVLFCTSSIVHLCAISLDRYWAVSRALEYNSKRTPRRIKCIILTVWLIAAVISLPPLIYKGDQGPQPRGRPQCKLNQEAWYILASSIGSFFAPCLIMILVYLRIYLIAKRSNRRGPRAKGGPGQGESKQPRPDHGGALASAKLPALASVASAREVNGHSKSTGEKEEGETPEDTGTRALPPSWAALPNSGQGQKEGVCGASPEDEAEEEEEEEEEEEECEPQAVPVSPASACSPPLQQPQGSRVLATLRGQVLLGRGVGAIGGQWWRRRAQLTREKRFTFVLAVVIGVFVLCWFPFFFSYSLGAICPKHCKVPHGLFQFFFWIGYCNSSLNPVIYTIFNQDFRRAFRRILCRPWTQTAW

[25] = molecular target: Adenosine receptor A2a (Homo sapiens) (UniProt P29274); test: A2A (h) Eurofins-Cerep binding assay; design: ligand concentration 6 nM; conditions: filed as agonist, Compound concentration 10.0 uM
[26] = system: Receptor-type tyrosine-protein kinase FLT3 (Homo sapiens), P36888 [R834Q]; conditions: Compound concentration 1000.0 nM
[27] = molecular target: Serine/threonine-protein kinase PLK2 (Homo sapiens) (UniProt Q9NYY3); conditions: Compound concentration 1000.0 nM
[28] = molecular target: Adenosine receptor A3 (Homo sapiens) (UniProt P0DMS8); test: A3 (h) Eurofins-Cerep binding assay; design: ligand concentration 0.15 nM; conditions: filed as agonist, Compound concentration 10.0 uM
[29] = molecular target: Serine/threonine-protein kinase PLK4 (Homo sapiens) (UniProt O00444); conditions: Compound concentration 1000.0 nM
NCI-H146 = test: CellTiter-Glo Luminescent Cell Viability Assay (BCL-XL dependent cell line H146); type: functional, cell-based; conditions: Homo sapiens
[30] = molecular target: Glutamate NMDA receptor (Rattus norvegicus) (UniProt P35439+Q00959+Q00960+Q00961+Q62645+Q8VHN2+Q9R1M7); test: PCP Eurofins-Cerep binding assay; type: protein-complex assay; design: ligand concentration 10 nM; conditions: filed as antagonist, Compound concentration 10.0 uM
[31] = molecular target: Mitotic checkpoint serine/threonine-protein kinase BUB1 (Homo sapiens) (UniProt O43683); conditions: Compound concentration 1000.0 nM
[32] = molecular target: Dual specificity tyrosine-phosphorylation-regulated kinase 1A (Homo sapiens) (UniProt Q13627); conditions: Compound concentration 1000.0 nM
[33] = molecular target: Serine/threonine-protein kinase NIM1 (Homo sapiens) (UniProt Q8IY84); conditions: Compound concentration 1000.0 nM
[34] = molecular target: Calcium/calmodulin-dependent protein kinase type 1B (Homo sapiens) (UniProt Q6P2M8); conditions: Compound concentration 1000.0 nM
[35] = molecular target: Casein kinase II subunit alpha' (Homo sapiens) (UniProt P19784); conditions: Compound concentration 1000.0 nM
Casein kinase II subunit alpha' (Homo sapiens), sequence (P19784 whole entry, looked up): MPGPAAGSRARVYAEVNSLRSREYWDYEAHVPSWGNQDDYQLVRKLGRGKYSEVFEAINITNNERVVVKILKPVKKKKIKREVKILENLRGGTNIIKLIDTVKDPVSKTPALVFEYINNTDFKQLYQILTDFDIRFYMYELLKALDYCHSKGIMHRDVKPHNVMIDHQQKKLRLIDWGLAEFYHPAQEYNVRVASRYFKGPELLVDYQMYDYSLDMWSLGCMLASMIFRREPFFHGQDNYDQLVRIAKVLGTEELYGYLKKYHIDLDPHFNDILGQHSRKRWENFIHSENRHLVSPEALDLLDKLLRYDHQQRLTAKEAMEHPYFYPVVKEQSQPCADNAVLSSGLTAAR

[36] = molecular target: 5-hydroxytryptamine receptor 4 (Homo sapiens) (UniProt Q13639); test: 5-HT4 e (h) Eurofins-Cerep binding assay; design: ligand concentration 0.3 nM; conditions: filed as antagonist, Compound concentration 10.0 uM
5-hydroxytryptamine receptor 4 (Homo sapiens), sequence (Q13639 whole entry): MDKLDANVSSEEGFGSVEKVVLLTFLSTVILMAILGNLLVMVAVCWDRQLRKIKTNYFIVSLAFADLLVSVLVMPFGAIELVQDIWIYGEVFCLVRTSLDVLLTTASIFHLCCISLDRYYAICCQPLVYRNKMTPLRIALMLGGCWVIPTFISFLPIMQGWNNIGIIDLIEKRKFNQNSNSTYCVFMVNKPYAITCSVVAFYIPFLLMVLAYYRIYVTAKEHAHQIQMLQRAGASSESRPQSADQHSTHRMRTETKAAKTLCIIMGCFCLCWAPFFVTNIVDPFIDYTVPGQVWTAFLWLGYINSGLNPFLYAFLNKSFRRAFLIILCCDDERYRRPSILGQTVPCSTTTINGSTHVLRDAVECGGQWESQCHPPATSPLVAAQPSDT

[37] = molecular target: Serine/threonine-protein kinase DCLK1 (Homo sapiens) (UniProt O15075); conditions: Compound concentration 1000.0 nM
Serine/threonine-protein kinase DCLK1 (Homo sapiens), sequence (O15075 whole entry): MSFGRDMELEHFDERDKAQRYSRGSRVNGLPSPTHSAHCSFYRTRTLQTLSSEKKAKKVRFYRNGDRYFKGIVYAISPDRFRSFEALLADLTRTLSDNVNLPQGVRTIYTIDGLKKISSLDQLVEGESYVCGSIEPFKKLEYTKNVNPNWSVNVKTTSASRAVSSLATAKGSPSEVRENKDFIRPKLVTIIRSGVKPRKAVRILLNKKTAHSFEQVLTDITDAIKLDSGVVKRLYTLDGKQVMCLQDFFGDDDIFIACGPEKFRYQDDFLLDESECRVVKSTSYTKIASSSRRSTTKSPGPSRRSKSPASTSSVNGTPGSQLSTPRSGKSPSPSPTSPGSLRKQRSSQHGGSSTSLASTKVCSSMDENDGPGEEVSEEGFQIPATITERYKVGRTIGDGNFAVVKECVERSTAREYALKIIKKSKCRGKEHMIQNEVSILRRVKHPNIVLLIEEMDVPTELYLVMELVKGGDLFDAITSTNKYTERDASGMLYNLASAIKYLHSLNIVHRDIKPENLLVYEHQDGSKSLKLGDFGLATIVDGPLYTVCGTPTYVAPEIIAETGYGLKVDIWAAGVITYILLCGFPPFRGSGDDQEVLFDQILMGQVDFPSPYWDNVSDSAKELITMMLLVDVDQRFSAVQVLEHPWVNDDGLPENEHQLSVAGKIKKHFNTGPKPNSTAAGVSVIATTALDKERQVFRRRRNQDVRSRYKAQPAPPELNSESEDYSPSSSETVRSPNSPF

[38] = molecular target: Serine/threonine-protein kinase 24 (Homo sapiens) (UniProt Q9Y6E0); conditions: Compound concentration 1000.0 nM

Serine/threonine-protein kinase pim-1 (Homo sapiens), sequence (P11309 whole entry, looked up): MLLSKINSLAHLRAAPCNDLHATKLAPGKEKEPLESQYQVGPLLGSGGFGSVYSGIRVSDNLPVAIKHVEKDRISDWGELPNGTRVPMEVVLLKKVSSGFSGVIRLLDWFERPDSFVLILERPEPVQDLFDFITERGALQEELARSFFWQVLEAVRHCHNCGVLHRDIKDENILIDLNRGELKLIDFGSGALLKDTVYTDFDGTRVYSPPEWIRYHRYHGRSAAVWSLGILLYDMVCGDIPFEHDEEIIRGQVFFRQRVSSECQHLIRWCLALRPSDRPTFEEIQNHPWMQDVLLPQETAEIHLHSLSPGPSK

Row | SMILES | residual activity [1] [%] | residual activity [2] [%] | residual activity [3] [%] | % Inhibition of Control Specific Binding (Mean n=2) [4] [%] | residual activity [5] [%] | residual activity [6] [%] | residual activity [7] [%] | residual activity [8] [%] | residual activity [9] [%] | residual activity [10] [%] | % Inhibition of Control Specific Binding (Mean n=2) [11] [%] | residual activity [12] [%] | residual activity [13] [%] | residual activity [14] [%] | residual activity [15] [%] | % Inhibition of Control Specific Binding (Mean n=2) [16] [%] | residual activity [17] [%] | residual activity [18] [%] | residual activity [19] [%] | % Inhibition of Control Specific Binding (Mean n=2) [20] [%] | other results
1 | O=C(NS(=O)(=O)c1ccc(NCC2CCOCC2)c([N+](=O)[O-])c1)c1ccc(N2CCN(Cc3ccc(C(F)(F)F)cc3-c3ccc(Cl)cc3)CC2)cc1Oc1cnc2[nH]ccc2c1 [A-1210227] | 84 | 98 | 92 | -57.7 | 94 | 89 | 100 | 90 | 100 | 100 | -2.1 | 74 | 100 | 85 | 96 | -11.8 | 100 | 80 | 96 | -3.9 | % Inhibition of Control Specific Binding (Mean n=2) [21]: 2.7%; residual activity [22]: 85%; residual activity [23]: 84%; % Inhibition of Control Specific Binding (Mean n=2) [24]: -11.6%; % Inhibition of Control Specific Binding (Mean n=2) [25]: 1.3%; residual activity [26]: 80%; residual activity [27]: 100%; % Inhibition of Control Specific Binding (Mean n=2) [28]: 6.5%; residual activity [29]: 98%; EC50 (NCI-H146): > 5 µM (not active); % Inhibition of Control Specific Binding (Mean n=2) [30]: 19.2%; residual activity [31]: 100%; residual activity [32]: 63%; residual activity [33]: 94%; residual activity [34]: 0%; residual activity [35]: 100%; % Inhibition of Control Specific Binding (Mean n=2) [36]: -2%; residual activity [37]: 100%; residual activity [38]: 100%
2 | CO[C@H]1CC[C@H](CNc2ccc(S(=O)(=O)NC(=O)c3ccc(N4CCN(CC5=C(c6ccc(Cl)cc6)CC(C)(C)CC5)CC4)cc3Oc3cnc4[nH]ccc4c3)cc2[N+](=O)[O-])CC1 [A-1211212] | 76 | 100 | 72 | -26.6 | 84 | 71 | 87 | 89 | 69 | 100 | -15.7 | 72 | 100 | 75 | 92 | -6.7 | 100 | 100 | 82 | 19.3 | % Inhibition of Control Specific Binding (Mean n=2) [21]: 8.6%; residual activity [22]: 66%; residual activity [23]: 61%; % Inhibition of Control Specific Binding (Mean n=2) [24]: -20.1%; % Inhibition of Control Specific Binding (Mean n=2) [25]: -4.4%; residual activity [26]: 100%; residual activity [27]: 100%; % Inhibition of Control Specific Binding (Mean n=2) [28]: 13.3%; residual activity [29]: 100%; EC50 (NCI-H146): > 5 µM (not active); % Inhibition of Control Specific Binding (Mean n=2) [30]: 1.9%; residual activity [31]: 73%; residual activity [32]: 65%; residual activity [33]: 90%; residual activity [34]: 81%; residual activity [35]: 100%; % Inhibition of Control Specific Binding (Mean n=2) [36]: -1%; residual activity [37]: 100%; residual activity [38]: 75%

From ChEMBL document CHEMBL4507310, “Data for DCP probe A-1211212” (2021)
